Target: T1, glutathione S-transferase (GST)-fused full-length human Syk protein (Homo sapiens, UniProt P43405)
T1 construct: (GST)-fused full-length human Syk protein; GST (glutathione S-transferase); purchased Carna Biosciences
Assay: Syk enzyme assay
Format: biochemical
Settings: Syk enzyme assay, Test Example 1; read-out: IC50 of Syk-inhibitory activity
In short: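 Baculovirus-expressed enzyme (1.2 ng) was preincubated with compound in HEPES pH 7.0/MgCl2/DTT buffer, 2 min shaking then 13 min at room temperature. Biotin-EDPDYEWPSA-NH2 (0.4 μM final) and ATP (27 μM final) were added for 40 min at room temperature. EDTA stop, streptavidin-XL/PT66-K TR-FRET at 615/665 nm gave IC50.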

Structure (SMILES)	IC50 [nM]
NC(=O)c1cc(F)c(N[C@@H]2CCCC[C@@H]2N)nc1Nc1cnc2nccnc2c1 [Example 004-021]	100 to 1000
CC(=O)N(C)c1cccc2cc(Nc3nc(N[C@@H]4CCCC[C@@H]4N)c(F)cc3C(N)=O)cnc12 [Example 004-034]	50 to 100
NC(=O)c1cc(F)c(N[C@@H]2CCCC[C@@H]2N)nc1Nc1ccnc2c1ccn2-c1ccccc1 [Example 004-038]	< 10
NC(=O)c1cc(F)c(N[C@@H]2CCCC[C@@H]2N)nc1Nc1cncc(Oc2ccccc2)c1 [Example 004-041]	50 to 100
NC(=O)c1cc(F)c(N[C@H](Cc2ccccc2)C(N)=O)nc1Nc1ccnc2c1ccn2CCN1CCOCC1 [Example 004-045]	10 to 50
CC(=O)Nc1cccc2cc(Nc3nc(N[C@H](Cc4ccccc4)C(N)=O)c(F)cc3C(N)=O)cnc12 [Example 004-047]	10 to 50
NC(=O)c1cc(F)c(N[C@H](Cc2ccccc2)C(N)=O)nc1Nc1ccnc2[nH]ccc12 [Example 004-063]	< 10
Cn1ccc2c(Nc3nc(N[C@@H]4CCCC[C@@H]4N)c(F)cc3C(N)=O)cc(C(F)(F)F)cc21 [Example 004-086]	< 10
NC(=O)c1cc(F)c(N[C@@H]2CCCC[C@@H]2N)nc1Nc1cc(C(F)(F)F)cc2c1ccn2CCN1CCOCC1 [Example 004-087]	< 10
COCCn1ccc2c(Nc3nc(N[C@@H]4CCCC[C@@H]4N)c(F)cc3C(N)=O)cc(C(F)(F)F)cc21 [Example 004-088]	< 10
NC(=O)c1cc(F)c(N[C@@H]2CCCC[C@@H]2N)nc1Nc1cncc(N2CCCC2=O)c1 [Example 004-107]	10 to 50
CCOC(=O)c1c(F)cc2c(Nc3nc(N[C@@H]4CCCC[C@@H]4N)c(F)cc3C(N)=O)cccn12 [Example 004-115]	< 10
COCCNc1cccc2cc(Nc3nc(N[C@@H]4CCCC[C@@H]4N)c(F)cc3C(N)=O)cnc12 [Example 004-122]	< 10
CN(C)c1ccc2cc(Nc3nc(N[C@@H]4CCCC[C@@H]4N)c(F)cc3C(N)=O)cnc2c1 [Example 004-126]	10 to 50
CCOCCOCCNc1cccc2cc(Nc3nc(N[C@@H]4CCCC[C@@H]4N)c(F)cc3C(N)=O)cnc12 [Example 004-133]	10 to 50
C[C@@H]1CN(c2cncc(Nc3nc(N[C@@H]4CCCC[C@@H]4N)c(F)cc3C(N)=O)c2)C[C@H](C)O1 [Example 004-180]	10 to 50
NC(=O)c1cc(F)c(N[C@@H]2CCCC[C@@H]2N)nc1Nc1cncc(-c2ccccc2OCC2CC2)c1 [Example 004-184]	10 to 50
NC(=O)c1cc(F)c(N[C@@H]2CCCC[C@@H]2N)nc1Nc1ccn2cnnc2c1 [Example 004-212]	10 to 50
CC(=O)Nc1cccc(-c2cncc(Nc3nc(N[C@@H]4CCCC[C@@H]4N)c(F)cc3C(N)=O)c2)c1 [Example 004-223]	< 10
CC(=O)Nc1ccc(-c2cncc(Nc3nc(N[C@@H]4CCCC[C@@H]4N)c(F)cc3C(N)=O)c2)cc1 [Example 004-224]	< 10
COc1cc(Nc2nc(N[C@@H]3CCCC[C@@H]3N)c(F)cc2C(N)=O)cnc1N1CCOCC1 [Example 004-233, 6-(((1R,2S)-2-aminocyclohexyl)amino)-5-fluoro-2-((5-methoxy-6-morpholinopyridin-3-yl)amino)nicotinamide]	100 to 1000
NC(=O)c1cc(F)c(N[C@@H]2CCCC[C@@H]2N)nc1Nc1cnc(N2CCOCC2)c2[nH]ccc12 [Example 004-234, 6-(((1R,2S)-2-aminocyclohexyl)amino)-5-fluoro-2-((7-morpholino-1H-pyrrolo[2,3-c]pyridin-4-yl)amino)nicotinamide]	10 to 50

Continued, values first:

IC50 [nM]	Structure (SMILES)
100 to 1000	NCCNc1nc(Nc2cccc(Cl)c2)c(C(N)=O)cc1F [Example 006-006, 6-((2-aminoethyl)amino)-2-(3-chlorophenylamino)-5-fluoronico-tinamide]
50 to 100	NCCNc1nc(Nc2cc(Cl)cc(Cl)c2)c(C(N)=O)cc1F [Example 006-007, 6-((2-aminoethyl)amino)-2-((3,5-dichlorophenyl)amino)-5-fluoro-nicotinamide]
50 to 100	CCNc1nc(Nc2ccc3cn[nH]c3c2)c(C(N)=O)cc1F [Example 006-018, 6-(ethylamino)-5-fluoro-2-((1H-indazol-6-yl)amino)nicotinamide]
100 to 1000	CCNc1nc(Nc2cnc3ccccc3c2)c(C(N)=O)cc1F [Example 006-020, 6-(ethylamino)-5-fluoro-2-(quinolin-3-ylamino)nicotinamide]
100 to 1000	CCNc1nc(Nc2ccc3ncsc3c2)c(C(N)=O)cc1F [Example 006-042, 2-((benzo[d]thiazol-6-yl)amino)-6-(ethylamino)-5-fluoronicotinamide]
10 to 50	NCCNc1nc(Nc2cncc(-c3ccccc3)c2)c(C(N)=O)cc1F [Example 006-089, 6-((2-aminoethyl)amino)-5-fluoro-2-((5-phenylpyridin-3-yl)amino)nicotinamide]
100 to 1000	Cn1cccc1-c1cncc(Nc2nc(NCCN)c(F)cc2C(N)=O)c1 [Example 006-090, 6-((2-aminoethyl)amino)-5-fluoro-2-((5-(1-methyl-1H-pyrrol-2-yl)pyridin-3-yl)amino)nicotinamide]
100 to 1000	Cc1ccc(Nc2nc(NC[C@H](C)N)c(F)cc2C(N)=O)cn1 [Example 006-095, (S)-6-((2-aminopropyl)amino)-5-fluoro-2-((6-methylpyridin-3-yl)amino)nicotinamide]
100 to 1000	COc1cc(Nc2nc(N[C@H]3CCCC[C@H]3N)c(F)cc2C(N)=O)cc(OC)n1 [Example 006-115, 6-((1S,2R)-2-aminocyclohexylamino)-2-((2,6-dimethoxypyridin-4-yl)amino)-5-fluoronicotinamide]
100 to 1000	Cc1cncc(Nc2nc(NC[C@@H](N)c3ccccc3)c(F)cc2C(N)=O)c1 [Example 006-118, (S)-6-((2-amino-2-phenylethyl)amino)-5-fluoro-2-((5-methylpyridin-3-yl)amino)nicotinamide]
10 to 50	NC(=O)c1cc(F)c(NC[C@@H](N)c2ccccc2)nc1Nc1cccc(-n2nccn2)c1 [Example 006-120, (S)-2-((3-(2H-1,2,3-triazol-2-yl)phenyl)amino)-6-((2-amino-2-phenylethyl)amino)-5-fluoronicotinamide]
10 to 50	NC[C@H](Nc1nc(Nc2ccc3cccnc3c2)c(C(N)=O)cc1F)c1ccccc1 [Example 006-134, (R)-6-((2-amino-1-phenylethyl)amino)-5-fluoro-2-(quinolin-7-ylamino)nicotinamide]
10 to 50	COc1cc(Nc2nc(N[C@H](c3ccccc3)[C@@H](N)c3ccccc3)c(F)cc2C(N)=O)ccn1 [Example 006-139]
10 to 50	CC[C@H](N)C(C)Nc1nc(Nc2ccc3ncccc3c2)c(C(N)=O)cc1F (stereo partly shown) [Example 006-149]
10 to 50	CCC(Nc1nc(Nc2ccc3ncccc3c2)c(C(N)=O)cc1F)[C@@H](N)CC (stereo partly drawn) [Example 006-150, 6-(((4S)-4-aminohexan-3-yl)amino)-5-fluoro-2-(quinolin-6-ylamino)nicotinamide]
10 to 50	CC[C@H](N)C(CC(C)C)Nc1nc(Nc2ccc3ncccc3c2)c(C(N)=O)cc1F (stereo partly drawn) [Example 006-151, 6-(((5S)-5-amino-2-methylheptan-4-yl)amino)-5-fluoro-2-(quinolin-6-ylamino)nicotinamide]
10 to 50	CC(C)C(Nc1nc(Nc2ccc3ncccc3c2)c(C(N)=O)cc1F)[C@H](C)N (stereo partly drawn) [Example 006-158, 6-(((2S)-2-amino-4-methylpentan-3-yl)amino)-5-fluoro-2-(quinolin-6-ylamino)nicotinamide]
50 to 100	CC(C)(C)[C@H](CN)Nc1nc(Nc2ccc3ncccc3c2)c(C(N)=O)cc1F [Example 006-162, (R)-6-((1-amino-3,3-dimethylbutan-2-yl)amino)-5-fluoro-2-(quinolin-6-ylamino)nicotinamide]
< 10	NCC1(Nc2nc(Nc3ccc4ncccc4c3)c(C(N)=O)cc2F)CC1 [Example 006-171, 6-((1-(aminomethyl)cyclopropyl)amino)-5-fluoro-2-((quinolin-6-yl)amino)nicotinamide]
10 to 50	NC(=O)c1cc(F)c(NC2CCCC2N)nc1Nc1ccc2ncccc2c1 (stereo not drawn) [Example 006-175, 6-((cis-2-aminocyclopentyl)amino)-5-fluoro-2-(quinolin-6-yl)amino)nicotinamide]

Same assay, conditions: read-out: Syk-inhibitory activity (IC50)

IC50 [nM]	Structure (SMILES)
≤ 1000	Cc1cccc(Nc2nc(NCCN)c(F)cc2C(N)=O)c1 [Example 6-2, 6-((2-aminoethyl)amino)-5-fluoro-2-(3-methylphenylamino)nico-tinamide]
≤ 1000	CCNc1nc(Nc2ccc3cn[nH]c3c2)c(C(N)=O)cc1F [Example 6-18, 6-(ethylamino)-5-fluoro-2-((1H-indazol-6-yl)amino)nicotinamide]
≤ 1000	CCNc1nc(Nc2cnc3ccccc3c2)c(C(N)=O)cc1F [Example 6-20, 6-(ethylamino)-5-fluoro-2-(quinolin-3-ylamino)nicotinamide]
≤ 1000	Cc1nc2ccc(Nc3nc(NCCN)c(F)cc3C(N)=O)cc2s1 [Example 6-21, 6-((2-aminoethyl)amino)-5-fluoro-2-((2-methylbenzo[d]thiazol-6-yl)amino)nicotinamide]
≤ 1000	Cc1nc2ccc(Nc3nc(NCCN)c(F)cc3C(N)=O)cc2o1 [Example 6-23, 6-((2-aminoethyl)amino)-5-fluoro-2-((2-methylbenzo[d]oxazol-6-yl)amino)nicotinamide]
≤ 1000	CC(=O)Nc1cccc(Nc2nc(NCCN)c(F)cc2C(N)=O)c1 [Example 6-24, 2-((3-acetylaminophenyl)amino)-6-((2-aminoethyl)amino)-5-fluoronicotinamide]
≤ 1000	Cn1ncc2ccc(Nc3nc(NCCN)c(F)cc3C(N)=O)cc21 [Example 6-27, 6-((2-aminoethyl)amino)-5-fluoro-2-((1-methyl-1H-indazol-6-yl)amino)nicotinamide]
